Values quoted from earlier work as cited in US20050008712A1, “Compositions incorporating high-caffeine green tea extract and related methods for promoting healthy body weight” (priority 2003, published 2005).

Settings: rats

For O=C(O[C@@H]1Cc2c(O)cc(O)cc2O[C@@H]1c1cc(O)c(O)c(O)c1)c1cc(O)c(O)c(O)c1 [EGCG, (−)-epigallo-catechin-3-gallate], which “loss of body weight” value (after daily injections for a week) is on record?
Its value is 20%.

What about the blood cholesterol (injected) of the same molecule?
The blood cholesterol was “significantly reduces”.

And the blood triglycerides (injected)?
Its blood triglycerides is “significantly reduces”.

And the body weight (injected)?
The body weight was “significantly reduces”.

And the food intake (injected)?
Its food intake is “significantly reduces”.
